The values that follow come from patent US11078198B2 (BRISTOL-MYERS SQUIBB COMPANY, priority 2017, dated 2021).

In this assay the target is T1, human FXR (Homo sapiens, UniProt Q96RI1).
T1 construct: expressed in transfected cells; host or cells: HEK293 cells stably carrying a 5xGal4-response-element firefly luciferase reporter, transiently transfected with pcDNA3.1-Gal4-FXR
T1 sequence (Q96RI1 262-486 limits assumed): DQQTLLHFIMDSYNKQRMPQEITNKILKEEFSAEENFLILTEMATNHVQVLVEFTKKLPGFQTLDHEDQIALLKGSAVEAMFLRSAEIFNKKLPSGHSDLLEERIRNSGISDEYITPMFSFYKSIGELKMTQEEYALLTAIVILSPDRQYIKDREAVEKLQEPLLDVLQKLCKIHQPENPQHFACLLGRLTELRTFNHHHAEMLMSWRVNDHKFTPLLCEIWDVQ
Put plainly: transient human FXR/Gal4-luciferase reporter assay. The format is cell-based. Particulars: Gal4-hFXR transfected HEK293 reporter cells; relative to 8 μM GW-4064. Put shortly: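 Transient Gal4-hFXR LBD fusion (pcDNA3.1, Lipofectamine, overnight) expressed in a HEK293 reporter line stably bearing five Gal4 elements upstream of firefly luciferase, grown in charcoal/dextran-stripped FBS. Compound dilutions in DMSO incubated with cells overnight at 37° C, 5% CO2, before luciferase readout.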
A general note: Reporter assays use an easily measured gene product as a stand-in for the process of interest.
As to `O=C(NS(=O)(=O)C1CC1)c1cc(OC(F)F)c2cc(N3CCC4(C=C(c5c(-c6cccnc6C(F)(F)F)noc5C5CC5)C4)CC3)ccc2n1` [Example 191, 6-(2-(5-Cyclopropyl-3-(2-(trifluoromethyl)pyridin-3-yl)isoxazol-4-yl)-7-azaspiro[3.5]non-1-en-7-yl)-N-(cyclopropylsulfonyl)-4-(difluoromethoxy)quinoline-2-carboxamide], the EC50 (commonly the midpoint of the concentration-response curve) worked out at 140 nM.

In the case of `CS(=O)(=O)NC(=O)c1cc(OC(F)F)c2cc(N3CCC4(C=C(c5c(-c6cccnc6C(F)(F)F)noc5C5CC5)C4)CC3)ccc2n1` [Example 192, 6-(2-(5-Cyclopropyl-3-(2-(trifluoromethyl)pyridin-3-yl)isoxazol-4-yl)-7-azaspiro[3.5]non-1-en-7-yl)-4-(difluoromethoxy)-N-(methylsulfonyl)quinoline-2-carboxamide], the response was half-maximal at 238 nM (EC50).

As to `O=C(NS(=O)(=O)C1CC1)c1ccc2cc(N3CCC4(C=C(c5c(-c6c(Cl)cccc6Cl)noc5C5CC5)C4)CC3)ccc2n1` [Example 193, 6-(2-(5-Cyclopropyl-3-(2,6-dichlorophenyl)isoxazol-4-yl)-7-azaspiro[3.5]non-1-en-7-yl)-N-(cyclopropylsulfonyl)quinoline-2-carboxamide], the EC50 is 178 nM.

In turn, `CS(=O)(=O)NC(=O)c1ccc2cc(N3CCC4(C=C(c5c(-c6c(Cl)cccc6Cl)noc5C5CC5)C4)CC3)ccc2n1` [Example 194, 6-(2-(5-Cyclopropyl-3-(2,6-dichlorophenyl)isoxazol-4-yl)-7-azaspiro[3.5]non-1-en-7-yl)-N-(methylsulfonyl)quinoline-2-carboxamide] displayed an EC50 of 255 nM.

For the compound `COc1cc(C(=O)NS(C)(=O)=O)nc2ccc(N3CCC4(C=C(c5c(-c6c(Cl)cncc6Cl)noc5C5CC5)C4)CC3)cc12` [Example 195, 6-(2-(5-Cyclopropyl-3-(3,5-dichloropyridin-4-yl)isoxazol-4-yl)-7-azaspiro[3.5]non-1-en-7-yl)-4-methoxy-N-(methylsulfonyl)quinoline-2-carboxamide], the EC50 was 75 nM. Compared with the last compound, the EC50 is about 3.4-fold lower.

Take `COc1cc(C(=O)NS(C)(=O)=O)nc2ccc(N3CCC4(C=C(c5c(-c6ccccc6C(F)(F)F)noc5C5CC5)C4)CC3)cc12` [Example 196, 6-(2-(5-Cyclopropyl-3-(2-(trifluoromethyl)phenyl)isoxazol-4-yl)-7-azaspiro[3.5]non-1-en-7-yl)-4-methoxy-N-(methylsulfonyl)quinoline-2-carboxamide]: the midpoint of the response, the EC50, lay at 155 nM.

The compound `NS(=O)(=O)NC(=O)c1cc(F)c2nc(N3CCC4(C=C(c5c(-c6c(Cl)cncc6Cl)noc5C5CC5)C4)CC3)sc2c1` [Example 197, 2-(2-(5-Cyclopropyl-3-(3,5-dichloropyridin-4-yl)isoxazol-4-yl)-7-azaspiro[3.5]non-1-en-7-yl)-4-fluoro-N-sulfamoylbenzo[d]thiazole-6-carboxamide] showed a concentration for a half-maximal effect (EC50) of 381 nM.

For `CNC(=O)c1cc(F)c2nc(N3CCC4(C=C(c5c(-c6c(Cl)cncc6Cl)noc5C5CC5)C4)CC3)sc2c1` [Example 198, 2-(2-(5-Cyclopropyl-3-(3,5-dichloropyridin-4-yl)isoxazol-4-yl)-7-azaspiro[3.5]non-1-en-7-yl)-4-fluoro-N-methylbenzo[d]thiazole-6-carboxamide], the EC50 was determined as 311 nM.

In turn, `CC(C)NC(=O)c1cc(F)c2nc(N3CCC4(C=C(c5c(-c6c(Cl)cncc6Cl)noc5C5CC5)C4)CC3)sc2c1` [Example 199, 2-(2-(5-Cyclopropyl-3-(3,5-dichloropyridin-4-yl)isoxazol-4-yl)-7-azaspiro[3.5]non-1-en-7-yl)-4-fluoro-N-isopropylbenzo[d]thiazole-6-carboxamide] showed an EC50 of 431 nM. This EC50 and that of the compound before are within 1.5-fold of each other.

In the case of `CCNC(=O)c1cc(F)c2nc(N3CCC4(C=C(c5c(-c6c(Cl)cncc6Cl)noc5C5CC5)C4)CC3)sc2c1` [Example 200, 2-(2-(5-Cyclopropyl-3-(3,5-dichloropyridin-4-yl)isoxazol-4-yl)-7-azaspiro[3.5]non-1-en-7-yl)-N-ethyl-4-fluorobenzo[d]thiazole-6-carboxamide], the EC50 was found to be 68 nM.

`O=C(NC1CC1)c1cc(F)c2nc(N3CCC4(C=C(c5c(-c6c(Cl)cncc6Cl)noc5C5CC5)C4)CC3)sc2c1` [Example 201, N-Cyclopropyl-2-(2-(5-cyclopropyl-3-(3,5-dichloropyridin-4-yl)isoxazol-4-yl)-7-azaspiro[3.5]non-1-en-7-yl)-4-fluorobenzo[d]thiazole-6-carboxamide] yielded an EC50 of 150 nM.

`NC(=O)c1cc(F)c2nc(N3CCC4(C=C(c5c(-c6c(Cl)cncc6Cl)noc5C5CC5)C4)CC3)sc2c1` [Example 202, 2-(2-(5-Cyclopropyl-3-(3,5-dichloropyridin-4-yl)isoxazol-4-yl)-7-azaspiro[3.5]non-1-en-7-yl)-4-fluorobenzo[d]thiazole-6-carboxamide] showed an EC50 of 155 nM.

Turning to `CCOC(=O)c1cc(C(F)(F)F)c2cc(N3CCC4(C=C(c5c(-c6c(Cl)cncc6Cl)noc5C5CC5)C4)CC3)ccc2n1` [Example 203, Ethyl 6-(2-(5-cyclopropyl-3-(3,5-dichloropyridin-4-yl)isoxazol-4-yl)-7-azaspiro[3.5]non-1-en-7-yl)-4-(trifluoromethyl)quinoline-2-carboxylate], the EC50 was 946 nM. Against the preceding compound, the EC50 is about 6.1-fold higher.

Consider `O=C(O)c1cc(F)c2nc(N3CCC4(C=C(c5c(C6CC6)nnn5-c5c(Cl)cccc5Cl)C4)CC3)sc2c1` [Example 204, 2-(2-(4-Cyclopropyl-1-(2,6-dichlorophenyl)-1H-1,2,3-triazol-5-yl)-7-azaspiro[3.5]non-1-en-7-yl)-4-fluorobenzo[d]thiazole-6-carboxylic acid], for which a half-maximal response (EC50) required 26 nM.

The compound `O=C(O)c1cc(F)c2nc(OC3CCC4(CC3)CC(O)(c3c(-c5c(Cl)cccc5Cl)noc3C3CC3)C4)sc2c1` (stereo not shown) [Example 205, 2-((2-(5-Cyclopropyl-3-(2,6-dichlorophenyl)isoxazol-4-yl)-2-hydroxyspiro[3,5]nonan-7-yl)oxy)-4-fluorobenzo[d]thiazole-6-carboxylic acid] showed an EC50 of 2620 nM.

`O=C(O)c1cccc(COC2CCC3(CC2)CC(O)(c2c(-c4c(Cl)cccc4Cl)noc2C2CC2)C3)c1` (stereo not shown) [Example 206, 3-(((2-(5-Cyclopropyl-3-(2,6-dichlorophenyl)isoxazol-4-yl)-2-hydroxyspiro[3.5]nonan-7-yl)oxy)methyl)benzoic acid]: the EC50 was 4710 nM.

Consider `O=C(O)c1cccc(OC2CCC3(CC2)CC(O)(c2c(-c4c(Cl)cccc4Cl)noc2C2CC2)C3)c1` (stereo not shown) [Example 207, 3-((2-(5-Cyclopropyl-3-(2,6-dichlorophenyl)isoxazol-4-yl)-2-hydroxyspiro[3.5]nonan-7-yl)oxy)benzoic acid], for which the EC50 is 4470 nM.

In turn, `O=C(O)c1ccc(OC2CCC3(CC2)CC(O)(c2c(-c4c(Cl)cccc4Cl)noc2C2CC2)C3)cc1` (stereo not shown) [Example 208, 4-((2-(5-Cyclopropyl-3-(2,6-dichlorophenyl)isoxazol-4-yl)-2-hydroxyspiro[3.5]nonan-7-yl)oxy)benzoic acid] came in with an EC50 of 6660 nM.

The compound `O=C(O)c1cc(F)c2nc(OC3CCC4(C=C(c5c(-c6c(Cl)cccc6Cl)noc5C5CC5)C4)CC3)sc2c1` (stereo not shown) [Example 209, 2-((2-(5-Cyclopropyl-3-(2,6-dichlorophenyl)isoxazol-4-yl)spiro[3.5]non-1-en-7-yl)oxy)-4-fluorobenzo[d]thiazole-6-carboxylic acid] gave an EC50 of 1280 nM.

Compound `O=C(O)c1ccc2cc(OC3CCC4(C=C(c5c(-c6c(Cl)cccc6Cl)noc5C5CC5)C4)CC3)ccc2n1` (stereo not shown) [Example 210, 6-((2-(5-Cyclopropyl-3-(2,6-dichlorophenyl)isoxazol-4-yl)spiro[3.5]non-1-en-7-yl)oxy)quinoline-2-carboxylic acid] displayed an EC50 of 485 nM.

On to `O=C(O)c1cc(C(F)(F)F)c2cc(N3CCC4(C=C(c5c(C(C6CC6)C6CC6)noc5C5CC5)C4)CC3)ccc2n1` [Example 212, 6-(2-(5-Cyclopropyl-3-(dicyclopropylmethyl)isoxazol-4-yl)-7-azaspiro[3.5]non-1-en-7-yl)-4-(trifluoromethyl)quinoline-2-carboxylic acid], for which the EC50 stood at 1550 nM.

`O=C(O)c1cc(F)c2nc(N3CCC4(C=C(c5c(C(F)F)cnn5-c5ccccc5C(F)(F)F)C4)CC3)sc2c1` [Example 213, 2-(2-(4-(Difluoromethyl)-1-(2-(trifluoromethyl)phenyl)-1H-pyrazol-5-yl)-7-azaspiro[3.5]non-1-en-7-yl)-4-fluorobenzo[d]thiazole-6-carboxylic acid] came in with an EC50 of 48 nM. This EC50 lies about 32-fold lower than the previous one.

`O=C(O)c1cc(C(F)(F)F)c2cc(N3CCC4(C=C(c5c(C(F)F)cnn5-c5ccccc5C(F)(F)F)C4)CC3)ccc2n1` [Example 214, 6-(2-(4-(Difluoromethyl)-1-(2-(trifluoromethyl)phenyl)-1H-pyrazol-5-yl)-7-azaspiro[3.5]non-1-en-7-yl)-4-(trifluoromethyl)quinoline-2-carboxylic acid] yielded an EC50 of 26 nM.

On to `O=C(O)c1cc(F)c2nc(N3CCC4(CC3)CC(c3c(C(F)F)cnn3-c3ccccc3C(F)(F)F)C4)sc2c1` [Example 215, 2-(2-(4-(Difluoromethyl)-1-(2-(trifluoromethyl)phenyl)-1H-pyrazol-5-yl)-7-azaspiro[3.5]nonan-7-yl)-4-fluorobenzo[d]thiazole-6-carboxylic acid], for which the EC50 is 995 nM.

The compound `O=C(O)c1cc(F)c2nc(N3CCC4(C=C(c5c(C(F)F)cnn5-c5c(Cl)cncc5Cl)C4)CC3)sc2c1` [Example 216, 2-(2-(1-(3,5-Dichloropyridin-4-yl)-4-(difluoromethyl)-1H-pyrazol-5-yl)-7-azaspiro[3.5]non-1-en-7-yl)-4-fluorobenzo[d]thiazole-6-carboxylic acid] displayed an EC50 of 88 nM. This EC50 lies about 11-fold lower than the previous one.
